The values below come from ChEMBL document CHEMBL1151028, “Synthesis of -hydroxy statine through a facially selective osmylation of a chiral -amido crotonate” (Bioorg Med Chem Lett, 1995).

Where a SMILES comes first, the peptide text is derived from it. [ ]: non-standard residue; d: D form. The star is where a group is joined. Sta = CC(C)C[C@H](N)[C@@H](O)CC(=O)O; Boc = CC(C)(C)OC(=O)*; GABA = NCCCC(=O)O

The target in the test is T1, Renin (Homo sapiens, UniProt P00797).
T1 sequence (P00797 whole entry): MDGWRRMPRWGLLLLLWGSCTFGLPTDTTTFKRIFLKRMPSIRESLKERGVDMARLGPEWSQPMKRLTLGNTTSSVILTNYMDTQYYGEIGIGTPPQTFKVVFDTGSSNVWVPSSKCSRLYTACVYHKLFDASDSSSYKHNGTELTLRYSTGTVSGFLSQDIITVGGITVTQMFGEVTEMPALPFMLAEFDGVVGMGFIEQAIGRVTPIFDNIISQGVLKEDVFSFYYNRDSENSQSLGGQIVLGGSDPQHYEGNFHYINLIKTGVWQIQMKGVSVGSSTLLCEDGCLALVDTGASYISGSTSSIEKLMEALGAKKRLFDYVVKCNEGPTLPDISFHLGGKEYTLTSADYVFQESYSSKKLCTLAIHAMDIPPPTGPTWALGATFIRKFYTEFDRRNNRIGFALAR
The test can be described thus: Inhibitory activity against renin was determined.

For orientation: IC50 means the concentration at which inhibition is half-maximal. `CC(C)C[C@H](NC(=O)[C@H](Cc1c[nH]cn1)NC(=O)[C@H](Cc1ccccc1)NC(=O)OC(C)(C)C)[C@@H](O)[C@H](O)C(=O)NCCCC(=O)O` gave an IC50 of 3 µM. In the case of `CC(C)C[C@H](NC(=O)[C@H](Cc1cnc[nH]1)NC(=O)[C@H](Cc1ccccc1)NC(=O)OC(C)(C)C)[C@H](O)[C@@H](O)C(=O)NCCCC(=O)O` it was 63 µM; in that of `CC(C)C[C@H](NC(=O)[C@H](Cc1cnc[nH]1)NC(=O)[C@H](Cc1ccccc1)NC(=O)OC(C)(C)C)[C@@H](O)CC(=O)NCCCC(=O)O` (Boc-FH[Sta][GABA]-OH), 3.2 µM.
